Test results: publication PMC5218480 (PLoS ONE, 2017)

Test system: MV-4-11 cells
Experiment: Gene expression microarray analysis (Affymetrix PrimeView) and GSEA
Type: cell-based, human
Parameters: RFU PODN (11730768_x_at) / Fold change /veh PODN (11730768_x_at) / RFU LINC00158 (11744669_a_at) / Fold change /veh LINC00158 (11744669_a_at) / RFU DUSP10 (11751237_a_at) / Fold change /veh DUSP10 (11751237_a_at) / RFU ID3 (11757404_x_at) / Fold change /veh ID3 (11757404_x_at) / RFU PLEKHG5 (11737974_s_at) / Fold change /veh PLEKHG5 (11737974_s_at) / RFU LRRC4B (11730491_at) / Fold change /veh LRRC4B (11730491_at) / RFU GIMAP4 (11747438_a_at) / Fold change /veh GIMAP4 (11747438_a_at) / RFU KRT8 (11758183_x_at) / Fold change /veh KRT8 (11758183_x_at) / RFU CNN1 (11734310_a_at) / Fold change /veh CNN1 (11734310_a_at) / RFU VPS37D (11726825_at) / Fold change /veh VPS37D (11726825_at) / RFU C10orf10 (11716522_x_at) / Fold change /veh C10orf10 (11716522_x_at) / RFU KIR2DL2 /// KIR2DL4 /// KIR2DL5A /// KIR2DL5B /// KIR2DS1 /// KIR2DS2 /// KIR2DS3 /// KIR2DS4 /// KIR3DL3 /// KIR3DL3 /// KIR3DS1 (11738374_at) / Fold change /veh KIR2DL2 /// KIR2DL4 /// KIR2DL5A /// KIR2DL5B /// KIR2DS1 /// KIR2DS2 /// KIR2DS3 /// KIR2DS4 /// KIR3DL3 /// KIR3DL3 /// KIR3DS1 (11738374_at) / RFU C1QL1 (11718748_at) / Fold change /veh C1QL1 (11718748_at) / RFU TMPRSS4 (11747572_a_at) / Fold change /veh TMPRSS4 (11747572_a_at) / RFU HAMP (11756126_x_at) / Fold change /veh HAMP (11756126_x_at) / RFU RNFT2 (11725882_a_at) / Fold change /veh RNFT2 (11725882_a_at) / RFU NR4A2 (11747474_a_at) / Fold change /veh NR4A2 (11747474_a_at) / RFU ABCC12 (11746883_a_at) / Fold change /veh ABCC12 (11746883_a_at) / RFU TMEM136 (11760407_x_at) / Fold change /veh TMEM136 (11760407_x_at) / RFU CLDN22 /// WWC2 (11732394_at) / Fold change /veh CLDN22 /// WWC2 (11732394_at) / RFU HLA-DPB1 (11760878_x_at) / Fold change /veh HLA-DPB1 (11760878_x_at) / RFU SPINT1 (11716480_a_at) / Fold change /veh SPINT1 (11716480_a_at) / RFU GAP43 (11754022_s_at) / Fold change /veh GAP43 (11754022_s_at) / RFU A4GNT (11735810_at) / Fold change /veh A4GNT (11735810_at) / RFU PRB3 (11715151_x_at) / Fold change /veh PRB3 (11715151_x_at) / RFU TUBB4B (11761932_at) / Fold change /veh TUBB4B (11761932_at) / RFU CAPN14 (11732068_a_at) / Fold change /veh CAPN14 (11732068_a_at) / RFU TMCC2 (11721928_a_at) / Fold change /veh TMCC2 (11721928_a_at) / RFU IRGQ (11745062_a_at) / Fold change /veh IRGQ (11745062_a_at) / RFU FAM174B (11720279_a_at) / Fold change /veh FAM174B (11720279_a_at) / RFU TMPRSS4 (11748680_a_at) / Fold change /veh TMPRSS4 (11748680_a_at) / RFU FAM212B (11763350_a_at) / Fold change /veh FAM212B (11763350_a_at) / RFU PLEKHG5 (11743358_a_at) / Fold change /veh PLEKHG5 (11743358_a_at) / RFU ZSCAN30 (11745921_a_at) / Fold change /veh ZSCAN30 (11745921_a_at) / RFU CMKLR1 (11741424_a_at) / Fold change /veh CMKLR1 (11741424_a_at) / RFU LOC101060620 /// MAPK8IP1 (11723275_at) / Fold change /veh LOC101060620 /// MAPK8IP1 (11723275_at) / RFU SPTSSB (11747773_x_at) / Fold change /veh SPTSSB (11747773_x_at) / RFU PRSS12 (11739890_at) / Fold change /veh PRSS12 (11739890_at) / RFU BIN1 (11741810_x_at) / Fold change /veh BIN1 (11741810_x_at) / RFU WNT11 (11732464_a_at) / Fold change /veh WNT11 (11732464_a_at) / RFU C10orf10 (11716521_a_at) / Fold change /veh C10orf10 (11716521_a_at) / RFU C5orf56 (11738089_at) / Fold change /veh C5orf56 (11738089_at) / RFU CYB561 (11721691_x_at) / Fold change /veh CYB561 (11721691_x_at) / RFU ANKRD19P (11752326_a_at) / Fold change /veh ANKRD19P (11752326_a_at) / RFU OR2T12 /// OR2T33 /// OR2T8 (11738714_s_at) / Fold change /veh OR2T12 /// OR2T33 /// OR2T8 (11738714_s_at) / RFU VCAN (11748164_a_at) / Fold change /veh VCAN (11748164_a_at) / RFU JSRP1 (11732532_at) / Fold change /veh JSRP1 (11732532_at) / RFU KRTAP10-11 (11738290_x_at) / Fold change /veh KRTAP10-11 (11738290_x_at) / RFU MYO3A (11730013_a_at) / Fold change /veh MYO3A (11730013_a_at) / RFU EBF3 (11725865_a_at) / Fold change /veh EBF3 (11725865_a_at) / RFU CAMK2N1 (11719241_x_at) / Fold change /veh CAMK2N1 (11719241_x_at) / RFU C5orf56 (11738088_a_at) / Fold change /veh C5orf56 (11738088_a_at) / RFU OLFML3 (11715873_a_at) / Fold change /veh OLFML3 (11715873_a_at) / RFU LOC100653217 /// NTM (11731650_a_at) / Fold change /veh LOC100653217 /// NTM (11731650_a_at) / RFU MAPK11 (11762145_a_at) / Fold change /veh MAPK11 (11762145_a_at) / RFU FIZ1 (11724087_x_at) / Fold change /veh FIZ1 (11724087_x_at) / RFU OASL (11726364_x_at) / Fold change /veh OASL (11726364_x_at) / RFU SOX15 (11748057_x_at) / Fold change /veh SOX15 (11748057_x_at) / RFU CD79A (11719716_a_at) / Fold change /veh CD79A (11719716_a_at) / RFU HIST1H1D (11736915_at) / Fold change /veh HIST1H1D (11736915_at) / RFU CASKIN2 (11723855_a_at) / Fold change /veh CASKIN2 (11723855_a_at) / RFU LOC730098 (11760151_x_at) / Fold change /veh LOC730098 (11760151_x_at) / RFU OR4N2 (11742367_at) / Fold change /veh OR4N2 (11742367_at) / RFU PRRT2 (11749266_a_at) / Fold change /veh PRRT2 (11749266_a_at) / RFU SNX32 (11753110_a_at) / Fold change /veh SNX32 (11753110_a_at) / RFU CDHR5 (11726645_a_at) / Fold change /veh CDHR5 (11726645_a_at) / RFU RCAN1 (11760418_a_at) / Fold change /veh RCAN1 (11760418_a_at) / RFU FAM167A (11723789_a_at) / Fold change /veh FAM167A (11723789_a_at) / RFU FAM26E (11764081_at) / Fold change /veh FAM26E (11764081_at) / RFU ISYNA1 (11749810_s_at) / Fold change /veh ISYNA1 (11749810_s_at) / RFU ACY1 (11761880_at) / Fold change /veh ACY1 (11761880_at) / RFU 11764098_at / Fold change /veh 11764098_at / RFU SAMD14 (11745864_x_at) / Fold change /veh SAMD14 (11745864_x_at) / RFU NPB (11741838_a_at) / Fold change /veh NPB (11741838_a_at) / RFU TMPRSS6 (11731388_a_at) / Fold change /veh TMPRSS6 (11731388_a_at) / RFU KRTAP10-2 (11738614_at) / Fold change /veh KRTAP10-2 (11738614_at) / RFU ARHGAP8 /// PRR5-ARHGAP8 (11727945_x_at) / Fold change /veh ARHGAP8 /// PRR5-ARHGAP8 (11727945_x_at) / RFU KRTAP5-7 /// NADSYN1 (11734609_at) / Fold change /veh KRTAP5-7 /// NADSYN1 (11734609_at) / RFU RASL12 (11751679_a_at) / Fold change /veh RASL12 (11751679_a_at) / RFU CDKN2B (11736163_a_at) / Fold change /veh CDKN2B (11736163_a_at) / RFU PRF1 (11729649_at) / Fold change /veh PRF1 (11729649_at) / RFU, ZNF638 /// ZNF638-IT1 / Fold change vs veh, ZNF638 /// ZNF638-IT1 / RFU, PANK3 / Fold change vs veh, PANK3 / RFU, SH3YL1 / Fold change vs veh, SH3YL1 / RFU, ZEB2 / Fold change vs veh, ZEB2 / RFU, NRIP1 / Fold change vs veh, NRIP1 / RFU, PTTG1IP / Fold change vs veh, PTTG1IP / RFU, CAPN2 / Fold change vs veh, CAPN2 / RFU, MED14 / Fold change vs veh, MED14 / RFU, SNORA58 / Fold change vs veh, SNORA58 / RFU, C1orf63 / Fold change vs veh, C1orf63 / RFU, LRRFIP1 / Fold change vs veh, LRRFIP1 / RFU, NDUFAF7 / Fold change vs veh, NDUFAF7 / RFU, SLC12A2 / Fold change vs veh, SLC12A2 / RFU, IBTK / Fold change vs veh, IBTK / RFU, ESF1 / Fold change vs veh, ESF1 / Fold change vs veh, TMEM50B / RFU, TAOK1 / Fold change vs veh, TAOK1 / RFU, ACBD3 / Fold change vs veh, ACBD3 / RFU, TMA16 / Fold change vs veh, TMA16 / RFU, RWDD3 / Fold change vs veh, RWDD3 / RFU, BCAT1 / Fold change vs veh, BCAT1 / RFU, EDEM3 / Fold change vs veh, EDEM3 / RFU, TMEM33 / Fold change vs veh, TMEM33 / RFU, WDR75 / Fold change vs veh, WDR75 / RFU, AHCTF1 / Fold change vs veh, AHCTF1 / RFU, TFRC / Fold change vs veh, TFRC / RFU, ZDHHC17 / Fold change vs veh, ZDHHC17 / RFU, NOM1 / Fold change vs veh, NOM1 / RFU, ARL8B / Fold change vs veh, ARL8B / RFU, ZBTB11 / Fold change vs veh, ZBTB11 / RFU, TAMM41 / Fold change vs veh, TAMM41 / RFU, KIAA1704 /// LOC100996395 / Fold change vs veh, KIAA1704 /// LOC100996395 / RFU, ING1 / Fold change vs veh, ING1 / RFU, TRMT61B / Fold change vs veh, TRMT61B / RFU, FUBP3 / Fold change vs veh, FUBP3 / RFU, TP53 / Fold change vs veh, TP53 / RFU, TNKS2 / Fold change vs veh, TNKS2 / RFU, ZFP14 / Fold change vs veh, ZFP14 / RFU, ACTR2 / Fold change vs veh, ACTR2 / RFU, PPP3R1 / Fold change vs veh, PPP3R1 / RFU, PIK3R1 / Fold change vs veh, PIK3R1 / RFU, HNRNPA1 / Fold change vs veh, HNRNPA1 / RFU, RNF170 / Fold change vs veh, RNF170 / RFU, ZNF28 / Fold change vs veh, ZNF28 / RFU, RNGTT / Fold change vs veh, RNGTT / RFU, OGT / Fold change vs veh, OGT / RFU, BRD1 / Fold change vs veh, BRD1 / RFU, MARS / Fold change vs veh, MARS / RFU, ZNF655 / Fold change vs veh, ZNF655 / RFU, FAHD1 / Fold change vs veh, FAHD1 / RFU, BDP1 / Fold change vs veh, BDP1 / RFU, LRRCC1 / Fold change vs veh, LRRCC1 / RFU, ARID1A / Fold change vs veh, ARID1A / RFU, ZNF146 / Fold change vs veh, ZNF146 / RFU, ZNF330 / Fold change vs veh, ZNF330 / RFU, GPN3 / Fold change vs veh, GPN3 / RFU, C9orf123 / Fold change vs veh, C9orf123 / RFU, N4BP2L2 / Fold change vs veh, N4BP2L2 / RFU, ARFIP1 / Fold change vs veh, ARFIP1 / RFU, FAM179B / Fold change vs veh, FAM179B / RFU, BCL10 / Fold change vs veh, BCL10 / RFU, UHRF1BP1L / Fold change vs veh, UHRF1BP1L / RFU, BET1 / Fold change vs veh, BET1 / RFU, CNOT2 / Fold change vs veh, CNOT2 / RFU, ZNF268 / Fold change vs veh, ZNF268 / Fold change vs veh, ZNF507 / RFU, DGCR2 / Fold change vs veh, DGCR2 / RFU, WDSUB1 / Fold change vs veh, WDSUB1 / Fold change vs veh, HSP90B1 /// MIR3652 / RFU, ADSS / Fold change vs veh, ADSS / RFU, GK / Fold change vs veh, GK / RFU, ZNF148 / Fold change vs veh, ZNF148 / RFU, TAF9 / Fold change vs veh, TAF9 / RFU, SLC1A5 / Fold change vs veh, SLC1A5 / RFU, SLMO2 / Fold change vs veh, SLMO2 / RFU, ABCC4 / Fold change vs veh, ABCC4 / RFU, LOC101060439 /// RAP1B / Fold change vs veh, LOC101060439 /// RAP1B / RFU, RFX7 / Fold change vs veh, RFX7 / RFU, GTPBP10 / Fold change vs veh, GTPBP10 / RFU, CNEP1R1 / Fold change vs veh, CNEP1R1 / RFU, BIVM-ERCC5 /// ERCC5 / Fold change vs veh, BIVM-ERCC5 /// ERCC5 / RFU, ILF3 / Fold change vs veh, ILF3 / RFU 11762660_at / Fold change /veh 11762660_at / RFU VCAN (11757783_s_at) / Fold change /veh VCAN (11757783_s_at) / RFU DDX43 (11728927_at) / Fold change /veh DDX43 (11728927_at) / RFU KRT8 (11758188_x_at) / Fold change /veh KRT8 (11758188_x_at) / RFU NKD1 (11759106_at) / Fold change /veh NKD1 (11759106_at) / RFU SRD5A1 (11742802_a_at) / Fold change /veh SRD5A1 (11742802_a_at) / RFU TPSAB1 /// TPSB2 (11721975_s_at) / Fold change /veh TPSAB1 /// TPSB2 (11721975_s_at) / RFU GSTM3 (11746129_a_at) / Fold change /veh GSTM3 (11746129_a_at) / RFU IL23R (11737362_x_at) / Fold change /veh IL23R (11737362_x_at) / RFU TMEM51 (11727254_a_at) / Fold change /veh TMEM51 (11727254_a_at) / RFU PIWIL2 (11732686_x_at) / Fold change /veh PIWIL2 (11732686_x_at) / RFU ORM1 (11744905_x_at) / Fold change /veh ORM1 (11744905_x_at) / RFU CCDC152 (11743942_at) / Fold change /veh CCDC152 (11743942_at) / RFU ECM1 (11717891_a_at) / Fold change /veh ECM1 (11717891_a_at) / RFU IL23R (11748794_a_at) / Fold change /veh IL23R (11748794_a_at) / RFU TNFAIP8L3 (11732012_x_at) / Fold change /veh TNFAIP8L3 (11732012_x_at) / RFU MBOAT4 (11741988_at) / Fold change /veh MBOAT4 (11741988_at) / RFU 11764193_at / Fold change /veh 11764193_at / RFU TMEM53 (11763286_at) / Fold change /veh TMEM53 (11763286_at) / RFU MAGEB2 (11727129_at) / Fold change /veh MAGEB2 (11727129_at) / RFU TMEM200A (11744735_a_at) / Fold change /veh TMEM200A (11744735_a_at) / RFU CCDC152 (11751479_a_at) / Fold change /veh CCDC152 (11751479_a_at) / RFU FAM211A (11726209_a_at) / Fold change /veh FAM211A (11726209_a_at) / RFU RGS16 (11746705_a_at) / Fold change /veh RGS16 (11746705_a_at) / RFU VCAN (11755009_s_at) / Fold change /veh VCAN (11755009_s_at) / RFU RHOB (11743442_s_at) / Fold change /veh RHOB (11743442_s_at) / RFU RGS16 (11720943_a_at) / Fold change /veh RGS16 (11720943_a_at) / RFU RGS16 (11720944_at) / Fold change /veh RGS16 (11720944_at) / RFU, VPS4B / Fold change vs veh, VPS4B / RFU, CREB1 / Fold change vs veh, CREB1 / RFU, DNAJC13 / Fold change vs veh, DNAJC13 / RFU, GNAQ / Fold change vs veh, GNAQ / RFU, CDK5R1 / Fold change vs veh, CDK5R1 / RFU, ZRANB3 / Fold change vs veh, ZRANB3 / RFU, CUL4A / Fold change vs veh, CUL4A / RFU, CCNY / Fold change vs veh, CCNY / RFU, UFL1 / Fold change vs veh, UFL1 / RFU, COG3 / Fold change vs veh, COG3 / RFU, DIAPH2 / Fold change vs veh, DIAPH2 / RFU, SKA2 / Fold change vs veh, SKA2 / RFU, AFF3 / Fold change vs veh, AFF3 / RFU, LMF1 / Fold change vs veh, LMF1 / RFU, IPO11 / Fold change vs veh, IPO11 / RFU, DFFB / Fold change vs veh, DFFB / RFU, FOXP1 / Fold change vs veh, FOXP1 / RFU, CARD8 / Fold change vs veh, CARD8 / RFU, STRN3 / Fold change vs veh, STRN3 / RFU, ADK / Fold change vs veh, ADK / RFU, RASSF2 / Fold change vs veh, RASSF2 / RFU, WIPF1 / Fold change vs veh, WIPF1 / RFU, LARP1B / Fold change vs veh, LARP1B / RFU, RASA1 / Fold change vs veh, RASA1 / RFU, RB1 / Fold change vs veh, RB1 / RFU, PPFIA1 / Fold change vs veh, PPFIA1 / RFU, MAT2A / Fold change vs veh, MAT2A / RFU, CCT5 / Fold change vs veh, CCT5 / RFU, WDR92 / Fold change vs veh, WDR92 / RFU, CUX1 / Fold change vs veh, CUX1 / RFU, TTC7A / Fold change vs veh, TTC7A / RFU, TMEM135 / Fold change vs veh, TMEM135 / RFU, DEPTOR / Fold change vs veh, DEPTOR / RFU, CPM / Fold change vs veh, CPM / RFU, DNAJB6 / Fold change vs veh, DNAJB6 / RFU, CACNA2D3 / Fold change vs veh, CACNA2D3 / RFU, DTX4 / Fold change vs veh, DTX4 / RFU, TFCP2 / Fold change vs veh, TFCP2 / RFU, GMCL1 /// GMCL1P1 / Fold change vs veh, GMCL1 /// GMCL1P1 / RFU, AEBP2 / Fold change vs veh, AEBP2 / RFU, SNHG1 /// SNORD22 /// SNORD25 /// SNORD26 /// SNORD27 /// SNORD28 /// SNORD29 /// SNORD31 / Fold change vs veh, SNHG1 /// SNORD22 /// SNORD25 /// SNORD26 /// SNORD27 /// SNORD28 /// SNORD29 /// SNORD31 / Fold change (Aza/veh), C12orf56 (ProbeSet 11735607_a_at) / Fold change (ACY-1035/veh), C12orf56 (ProbeSet 11735607_a_at) / Fold change (Aza/veh), FGFR1OP (ProbeSet 11751329_s_at) / Fold change (ACY-1035/veh), FGFR1OP (ProbeSet 11751329_s_at) / Fold change (Aza/veh), VPS36 (ProbeSet 11739960_a_at) / Fold change (ACY-1035/veh), VPS36 (ProbeSet 11739960_a_at) / RFU SYPL1 (11715823_x_at) / Fold change /veh SYPL1 (11715823_x_at) / RFU IGFBP7 (11715501_s_at) / Fold change /veh IGFBP7 (11715501_s_at) / RFU REEP3 (11722064_at) / Fold change /veh REEP3 (11722064_at) / RFU IGLL1 (11728026_x_at) / Fold change /veh IGLL1 (11728026_x_at): dose or concentration left out as unconfirmed
Conditions: MV-4-11 cells, 48 hours

Nc1ccc(-c2cccs2)cc1NC(=O)c1ccc2c(c1)cc(C1CC1)n2CCN1CCOCC1 [ACY-1035]
Fold change /veh CLDN22 /// WWC2 (11732394_at): 1.04
